Measurements reported in patent US20130195926A1, “MODULATION OF NITRIC OXIDE SIGNALING TO NORMALIZE TUMOR VASCULATURE” (The General Hospital Corporation, priority 2007, published 2013).

What was measured:
[1] = test system: nNOS; assay: Western blot of nNOS knockdown in cultured nNOS shRNA-transfected U87 cells; type: cell-based, human
Protocol: U87MG (American Type Culture Collection HTB-14) and GL261 (generous gift from Dr. G. Yancey Gillespie at University of Alabama) tumor cells were cultured in Dulbecco's Modified Eagle's Medium with 10% fetal bovine serum at 37° C. in a humidified 5% CO2 incubator. The following short-hairpin RNAs (shRNAs) for nNOS were designed using a commercial service program for small interfering RNA (siRNA) target finder (http://www.ambion.com/techlib/misc/siRNA_finder.html): nNOS-shRNA58, CAAAGAGATCGACACCATC (sense), […] (antisense); nNOSshRNA97, CACGCATGTCTGGAAAGGC (sense), […](antisense); nNOS-shRNA150, GGTCTATCCAATGTCCACA (sense), […] (antisense). The DNA oligonucleotides consist of a 19-nucleotide sense siRNA sequence linked to its reverse complementary antisense siRNA sequence by a short spacer (TTCAAGAGA).
Each DNA oligonucleotide was prepared with nucleotide overhangs with BamHI and HindIII restriction sites added to the 5′ and 3′ end of the DNA oligonucleotides and subcloned into the pSilencer 3.1 H-1-hygro (Ambion) that allows transcription of the shRNA. These expression vectors were stably transfected into U87MG cells using LipofectAMINE 2000 (Invitrogen) following the manufacturer's instruction.
The stably transfected cells were selected with 80 μg/ml of hygromycin B. The expression of nNOS protein in U87 tumor cells and tissues was determined by'Western blot analysis. […]
Equal amounts of 60 micrograms of protein per sample were separated on 7.5% SDS polyacrylamide gels, transferred onto polyvinylidene fluoride membrane (Millipore), incubated with primary antibodies followed by secondary antibodies (the same antibodies used in immunohistochemistry studies. See Immunohistochemistry methods below), and detected using enhanced chemiluminescence (GE Healthcare) by exposure on autoradiography films (Kodak) (Xu, L., et al. 2005 Cancer Res. 65, 5711-5719; Canneliet, P., et al. 1998 Nature 394, 485-490; Xu, L., et al. 2002 Journal of Biological Chemistry 277, 11368-11374 (2002); and Xu, L., et al. 2004 Clinical Cancer Research 10, 701-707). […]

[2] = test system: nNOS; assay: Western blot of nNOS knockdown in U87 tumors grown in cranial windows; type: in vivo; conditions: U87 tumors in cranial windows in Rag-1-/- mice
Protocol: The stably transfected cells were selected with 80 μg/ml of hygromycin B. The expression of nNOS protein in U87 tumor cells and tissues was determined by'Western blot analysis. Cultured U87MG cells washed with PBS and U87MG tumors homogenized by a tissue grinder were solubilized in 40 mM Tris-HCl, pH 6.8, 2% SDS, 10% glycerol, 1% β-mercaptoethanol, 0.01% bromophenol blue with one Complete Mini Protease Inhibitor Cocktail tablet (Roche Diagnostics) per 50 ml buffer.
Equal amounts of 60 micrograms of protein per sample were separated on 7.5% SDS polyacrylamide gels, transferred onto polyvinylidene fluoride membrane (Millipore), incubated with primary antibodies followed by secondary antibodies (the same antibodies used in immunohistochemistry studies. See Immunohistochemistry methods below), and detected using enhanced chemiluminescence (GE Healthcare) by exposure on autoradiography films (Kodak) (Xu, L., et al. 2005 Cancer Res. 65, 5711-5719; Canneliet, P., et al. 1998 Nature 394, 485-490; Xu, L., et al. 2002 Journal of Biological Chemistry 277, 11368-11374 (2002); and Xu, L., et al. 2004 Clinical Cancer Research 10, 701-707).
Recombination activating gene 1 (Rag-1^−/−) mice backcrossed to C57BL/6 background or severe combined immunodeficiency (SCID) mice, bred and maintained in an gnotobiotic animal facility, were used. To obtain source tumor tissue, U87 tumor cells in culture (1×10^6 cells) were injected subcutaneously into Rag-1^−/− or SCID mice matching the recipient mice. When the tumor reached about 8 mm in diameter, it was excised after euthanasia and a small piece (about 1 mm^3) of viable tumor tissue was implanted into a cranial window or subcutaneously into the calf area of the right hindlegs of the mice as previously described (Kashiwagi, S., et al. 2005 J. Clin. Invest. 115, 1816-1827; Kozin, S. V., et al. 2001 Cancer Research 61, 39-44). […]
U87 with nNOS shRNA (shRNA58, shRNA97, and shRNA150) were grown in cranial windows in Rag-1^−/− mice. Expression of nNOS in these tumors was determined by Western blot analysis. […]

shRNA58: short-hairpin RNA for nNOS, CAAAGAGATCGACACCATC (sense), GATGGTGTCGATCTCTTTGTT (antisense), in pSilencer 3.1 H-1-hygro, stably transfected into U87MG
Knockdown efficiency of nNOS in vitro [1]: 99% | Knockdown efficiency of nNOS in vivo [2]: 98%

shRNA150: short-hairpin RNA for nNOS, GGTCTATCCAATGTCCACA (sense), TGTGGACATTGGATAGACCTT (antisense), in pSilencer 3.1 H-1-hygro
Knockdown efficiency of nNOS in vitro [1]: 99% | Knockdown efficiency of nNOS in vivo [2]: 96%
